pKi: −log10 of the molar value.

Three compounds from ChEMBL document CHEMBL2375240, “The alpha-carbonic anhydrase from the thermophilic bacterium Sulfurihydrogenibium yellowstonense YO3AOP1 is highly susceptible to inhibition by sulfonamides” (Bioorg Med Chem, 2013) can be followed below.

Carbonic anhydrase 1, sequence (P00915 whole entry): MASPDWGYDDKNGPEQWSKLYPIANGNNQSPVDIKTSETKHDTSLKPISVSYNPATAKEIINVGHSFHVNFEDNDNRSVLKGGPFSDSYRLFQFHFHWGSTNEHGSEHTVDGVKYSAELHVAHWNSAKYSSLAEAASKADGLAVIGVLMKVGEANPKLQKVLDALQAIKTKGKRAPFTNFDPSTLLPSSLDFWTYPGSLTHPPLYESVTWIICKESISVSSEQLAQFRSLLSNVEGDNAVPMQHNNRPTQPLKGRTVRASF

The assay has as its target Carbonic anhydrase 1 (Homo sapiens, UniProt P00915).
With `NS(=O)(=O)c1nc2ccc(OCCO)cc2s1`, the pKi was 4.64. As for `Cn1nc(S(N)(=O)=O)s/c1=N/S(=O)(=O)c1ccc(N)cc1`, the pKi was 6.73. The result for `Nc1ccc2nc(S(N)(=O)=O)sc2c1` reads 7.26.
